Where a name gives a salt, the structure may show the parent alone.
Tested on: HepaRG
Test: LDH release cytotoxicity, % of total lysis control; higher = more cytotoxic
Conditions: 48 h
Method in brief: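 The CytoTox-ONE kit was used to read LDH in 50 µL spent medium as resorufin fluorescence on a Tecan Safire, with 0.1% Triton X added to total lysis wells. Beforehand, single-lot HepaRG cells on collagen I-coated 96-well plates had been exposed in duplicate for 48 h to eight-point half-log series (top 100 µM) in serum-free induction medium containing 0.5% DMSO. Percent cytotoxicity was normalized against on-plate vehicle and total lysis controls and averaged over duplicates.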

CC(C)(C)c1ccc(CSc2cnn(C(C)(C)C)c(=O)c2Cl)cc1 [Pyridaben]
Conditions | LDH release cytotoxicity [%]
0.03162 µM | -0.363
0.1 µM | -1.38
0.3162278 µM | -1.47
1 µM | -1.89
3.16228 µM | 17.6
10 µM | 26.6
31.6228 µM | 26.9
100 µM | 34.6

Cc1ncc(CO)c(CO)c1O [Pyridoxine]
Conditions | LDH release cytotoxicity [%]
0.03162 µM | -3.02
0.1 µM | -2.28
0.3162278 µM | -2.33
1 µM | -2.01
3.16228 µM | -2.69
10 µM | -2.47
31.6228 µM | -2.46
100 µM | 1.11

CCc1nc(N)nc(N)c1-c1ccc(Cl)cc1 [Pyrimethamine]
Conditions | LDH release cytotoxicity [%]
0.03162 µM | -0.622
0.1 µM | -0.806
0.3162278 µM | 0.238
1 µM | 0.679
3.16228 µM | 1.89
10 µM | 4.04
31.6228 µM | 2.08
100 µM | 14.2

Cc1cc(C)nc(Nc2ccccc2)n1 [Pyrimethanil]
Conditions | LDH release cytotoxicity [%]
0.03162 µM | -0.263
0.1 µM | -1.12
0.3162278 µM | -0.512
1 µM | -1.63
3.16228 µM | -0.622
10 µM | -0.288
31.6228 µM | 0.157
100 µM | 3.8

CC(COc1ccc(Oc2ccccc2)cc1)Oc1ccccn1 (centres undefined) [Pyriproxyfen]
Conditions | LDH release cytotoxicity [%]
0.031623 µM | -1.46
0.1 µM | -2.74
0.316228 µM | -2.85
1 µM | -3
3.16228 µM | -3.01
10 µM | -2.89
31.6228 µM | -1.8
100 µM | 1.18

COc1cc(OC)nc(Sc2cccc(Cl)c2C(=O)O)n1 [Pyrithiobac-sodium]
Conditions | LDH release cytotoxicity [%]
0.03162 µM | -1.21
0.1 µM | -0.445
0.3162278 µM | -0.467
1 µM | -0.953
3.16228 µM | -0.133
10 µM | 0.758
31.6228 µM | 0.654
100 µM | 2.53

O=C1C(=O)C(c2ccc(O)c(O)c2)Oc2cc(O)cc(O)c21 (centres undefined) [Quercetin]
Conditions | LDH release cytotoxicity [%]
0.03162 µM | -0.715
0.1 µM | -0.382
0.3162278 µM | -1.09
1 µM | -1.24
3.16228 µM | -0.569
10 µM | -1.09
31.6228 µM | -1.1
100 µM | 10.6

O=C(O)c1c(Cl)ccc2cc(Cl)cnc12 [Quinclorac]
Conditions | LDH release cytotoxicity [%]
0.03162 µM | -0.412
0.1 µM | -0.369
0.3162278 µM | -0.616
1 µM | -0.762
3.16228 µM | -0.281
10 µM | -0.297
31.6228 µM | 0.046
100 µM | 0.495

c1ccc2ncccc2c1 [Quinoline]
Conditions | LDH release cytotoxicity [%]
0.03162 µM | -1.44
0.1 µM | 0.113
0.3162278 µM | -0.853
1 µM | -1.155
3.16228 µM | 0.144
10 µM | -1.28
31.6228 µM | -0.47
100 µM | 2.26

Fc1ccc(Oc2ccnc3cc(Cl)cc(Cl)c23)cc1 [Quinoxyfen]
Conditions | LDH release cytotoxicity [%]
0.03162 µM | -0.928
0.1 µM | -1.42
0.3162278 µM | -1.39
1 µM | -0.911
3.16228 µM | -1.44
10 µM | -0.367
31.6228 µM | -0.837
100 µM | 3.32

CCOC(=O)C(C)Oc1ccc(Oc2cnc3cc(Cl)ccc3n2)cc1 (centres undefined) [Quizalofop-ethyl]
Conditions | LDH release cytotoxicity [%]
0.0272 µM | -0.606
0.086 µM | -0.619
0.271956 µM | -0.991
0.86 µM | -1.42
2.71956 µM | -0.919
8.6 µM | -0.541
27.1956 µM | -0.469
86 µM | -0.0561

O=C(c1ccc(OCCN2CCCCC2)cc1)c1c(-c2ccc(O)cc2)sc2cc(O)ccc12 [Raloxifene hydrochloride]
Conditions | LDH release cytotoxicity [%]
0.03162 µM | -1.32
0.1 µM | -1.13
0.3162278 µM | -0.881
1 µM | -1.8
3.16228 µM | -2.08
10 µM | -1.62
31.6228 µM | -1.9
100 µM | 73.39

COC(=O)C1C2CC3c4[nH]c5cc(OC)ccc5c4CCN3CC2CC(OC(=O)c2cc(OC)c(OC)c(OC)c2)C1OC (centres undefined) [Reserpine]
Conditions | LDH release cytotoxicity [%]
0.0267212 µM | -2.17
0.0845 µM | -2.63
0.267213 µM | -1.99
0.845 µM | -3.03
2.67212 µM | -1.69
8.45 µM | -1.52
26.7212 µM | 10.5
84.5 µM | 46.8

CC(C)=CC1C(C(=O)OCc2coc(Cc3ccccc3)c2)C1(C)C (centres undefined) [Resmethrin]
Conditions | LDH release cytotoxicity [%]
0.03162 µM | -0.985
0.1 µM | -0.737
0.3162278 µM | -0.651
1 µM | -1.31
3.16228 µM | -0.881
10 µM | -0.19
31.6228 µM | -0.451
100 µM | 0.209

Oc1cccc(O)c1 [Resorcinol]
Conditions | LDH release cytotoxicity [%]
0.03162 µM | -0.658
0.1 µM | -1.17
0.3162278 µM | -0.864
1 µM | -1.17
3.16228 µM | -2.41
10 µM | -0.6
31.6228 µM | -0.357
100 µM | 2.31

CC(C=CC1=C(C)CCCC1(C)C)=CC=CC(C)=CCO [Retinol]
Conditions | LDH release cytotoxicity [%]
0.03305 µM | -0.586
0.1045 µM | -1.81
0.330458 µM | -1.85
1.045 µM | -1.97
3.30458 µM | -2.34
10.45 µM | -1.67
33.0458 µM | -1.8
104.5 µM | -1.69

O=C(CCCCCCCCc1cccnc1)N1CCC(C=C(c2ccccc2)c2ccccc2)CC1 [Ro 23-7637]
Conditions | LDH release cytotoxicity [%]
0.03162 µM | 0.3
0.1 µM | -1.044
0.3162278 µM | -0.912
1 µM | -1.28
3.16228 µM | -1.65
10 µM | -1.03
31.6228 µM | 11.7
100 µM | 63.3

C=C(C)C1Cc2c(ccc3c2OC2COc4cc(OC)c(OC)cc4C2C3=O)O1 (centres undefined) [Rotenone]
Conditions | LDH release cytotoxicity [%]
0.03162 µM | -3.41
0.1 µM | -3.52
0.3162278 µM | -4.58
1 µM | 4.61
3.16228 µM | 19.6
10 µM | 48.4
31.6228 µM | 71.8
100 µM | 72.3

Source: the supplement of paper PMC7840683
